Results on 8 compounds are retold here after patent US9512075B2 (OKAYAMA UNIVERSITY, priority 2012, dated 2016).

≈ marks a conversion by molar mass, not a printed value. Where two headings read alike, the source gives them in different places.

Common to all, as to format: cell-based
Test [1] has as its system Clostridium difficile JCM1296 strain. The test is described as follows: microbe, parasite or virus in culture. The conditions noted are these: Clostridioides difficile, JCM1296, read-out: MIC Clostridium difficile JCM1296.
The test system of test [2] is Clostridium perfringens PB6K strain. The test is described as follows: microbe, parasite or virus in culture. The following applies: Clostridium perfringens, PB6KSTRAIN, read-out: MIC Clostridium perfringens PB6K, PB6K strain; CD medium, 37° C. overnight, 10% CO2-containing anaerobic conditions.
The subject of test [3] is Escherichia coli K-12 strain. The test is described as follows: MIC for Escherichia coli K-12 strain. The conditions noted are these: Escherichia coli, K12STRAIN, read-out: MIC Escherichia coli K12.
The test system of test [4] is Escherichia coli BE1121 strain. Kind of test: MIC for Escherichia coli BE1121 strain. The conditions noted are these: Escherichia coli, BE1121STRAIN, read-out: MIC Escherichia coli BE1121.
For test [5], the system named is Enterococcus faecalis NCTC12201 strain (vancomycin-resistant Enterococcus: VRE). Kind of test: MIC for Enterococcus faecalis NCTC12201 strain (VRE). The conditions noted are these: read-out: MIC Enterococcus faecalis NCTC 12201 (VRE).
In test [6] the test system is Staphylococcus aureus MRSA No. 17 (methicillin-resistant Staphylococcus aureus: MRSA). The test is described as follows: MIC for Staphylococcus aureus MRSA No. 17. The conditions noted are these: read-out: MIC Straphyrococcus aureus MRSA No. 17 (MRSA).
In test [7] the test system is Staphylococcus aureus 209P strain. The test is described as follows: MIC for Staphylococcus aureus 209P strain. The following applies: Staphylococcus aureus, read-out: MIC Straphyrococcus aureus 209P.
Test [8] relates to Enterococcus faecalis 5038 strain. The test is described as follows: MIC for Enterococcus faecalis 5038 strain. The conditions noted are these: read-out: MIC Enterococcus faecalis 5038.
Test [9] has as its system Staphylococcus aureus Smith strain. The test is described as follows: MIC for Staphylococcus aureus Smith strain. The following applies: read-out: MIC Straphyrococcus aureus Smith.
[10] abbreviates: K-12 strain, regular bouillon medium, 37° C. overnight, turbidity.
Setting [11] is: BE1121 strain, regular bouillon medium, 37° C. overnight, turbidity.
The mark [12] stands for this setting: NCTC12201 strain (VRE), Heart Infusion Broth medium, 37° C. overnight, turbidity.
Where [13] appears, read: MRSA No. 17, regular bouillon medium, 37° C. overnight, turbidity.
Setting [14] is: 209P strain, regular bouillon medium, 37° C. overnight, turbidity.
Where [15] appears, read: 5038 strain, Heart Infusion Broth medium, 37° C. overnight, turbidity.
[16] abbreviates: Smith strain, regular bouillon medium, 37° C. overnight, turbidity.

Take `CCCCCCCCCC(=O)N[C@@H](C)C(=O)c1c(O)c2ccccc2oc1=O` [B011, 3-(2-decanoylaminopropionyl)-4-hydroxycoumarin]: the MIC in [1] turned out to be 2 µg/mL (≈ 5.16 µM); in test [2], 1 µg/mL (≈ 2.58 µM); in [3] (setting [10]), 256 µg/mL (≈ 661 µM); in test [4] (setting [11]) it was 256 µg/mL (≈ 661 µM); in [5] (setting [12]), 256 µg/mL (≈ 661 µM); in test [6] (setting [13]) it was 256 µg/mL (≈ 661 µM). Besides, the MIC in test [7] (setting [14]), in test [8] (setting [15]) and in test [9] (setting [16]) was 256 µg/mL (≈ 661 µM) in each case.

With `CC(C)[C@H]1CC[C@H](C)CC1OCC(=O)c1c(O)c2ccccc2oc1=O` (stereo in doubt) [B006, 4-hydroxy-3-menthyloxyacetylcoumarin], the MIC in test [1] is 2 µg/mL (≈ 5.58 µM); in [2] it was 1 µg/mL (≈ 2.79 µM); in test [3] (setting [10]), 128 µg/mL (≈ 357 µM); in test [4] (setting [11]), 2 µg/mL (≈ 5.58 µM); in test [5] (setting [12]) it was 2 µg/mL (≈ 5.58 µM); in test [6] (setting [13]) it was 2 µg/mL (≈ 5.58 µM). Further, the MIC in test [7] (setting [14]) turned out to be 1 µg/mL (≈ 2.79 µM); in test [8] (setting [15]), 2 µg/mL (≈ 5.58 µM); in test [9] (setting [16]) it was 1 µg/mL (≈ 2.79 µM).

As to `CCCCCCCCCC(O)=C1C(=O)N(C)c2ccccc21` [A007, N-methyl-3-decanoyl-2-oxyindole], the MIC was 2 µg/mL (≈ 6.64 µM) in [1]; 8 µg/mL (≈ 26.5 µM) in test [2]; 256 µg/mL (≈ 849 µM) in [3]; 256 µg/mL (≈ 849 µM) in test [4]; 15 µg/mL (≈ 49.8 µM) in [5] (setting [12]); 128 µg/mL (≈ 425 µM) in test [6] (setting [13]). In addition, the MIC amounted to 32 µg/mL (≈ 106 µM) in [7] (209P), 32 µg/mL (≈ 106 µM) in test [8] (setting [15]) and 8 µg/mL (≈ 26.5 µM) in test [9] (setting [16]).

With `CCCCCCCCCCSCC(=O)c1c(O)c2ccccc2oc1=O` [B023], the MIC was less than 0.125 µg/mL in test [1]; less than 0.125 µg/mL in [2]; 256 µg/mL (≈ 680 µM) in test [3] (setting [10]); 2 µg/mL (≈ 5.31 µM) in [4] (setting [11]); 0.25 µg/mL (≈ 0.664 µM) in test [5] (NCTC12201|VRE); 1 µg/mL (≈ 2.66 µM) in [6] (MRSA). In addition, the MIC in [7] (setting [14]) turned out to be 1 µg/mL (≈ 2.66 µM); in test [8] (5038STRAIN) it was 0.25 µg/mL (≈ 0.664 µM); in test [9], 0.25 µg/mL (≈ 0.664 µM).

Consider `CCCCCCCCCC(=O)N1C(=O)C(=C(O)c2ccccc2O)c2ccccc21` [A063, N-decanoyl-3-(2-hydroxybenzoyl)-2-oxyindole], for which the MIC amounted to 16 µg/mL (≈ 39.3 µM) in test [1]; 256 µg/mL (≈ 628 µM) in test [2]; 128 µg/mL (≈ 314 µM) in test [3] (setting [10]); 128 µg/mL (≈ 314 µM) in test [4] (setting [11]); 256 µg/mL (≈ 628 µM) in test [5]; 256 µg/mL (≈ 628 µM) in [6] (MRSA). The MIC in test [7] (setting [14]), in [8] (5038STRAIN) and in test [9] was 256 µg/mL (≈ 628 µM) throughout.

Consider `CCCCCCCCOCC(=O)c1c(O)c2ccccc2oc1=O` [B030, 3-octyloxyacetyl-4-hydroxycoumarin], for which the MIC in test [1] was 0.25 µg/mL (≈ 0.752 µM); in [2] it was 0.25 µg/mL (≈ 0.752 µM); in [3] (setting [10]), 128 µg/mL (≈ 385 µM); in test [4] (setting [11]), 2 µg/mL (≈ 6.02 µM); in [5], 4 µg/mL (≈ 12 µM); in test [6] (MRSA), 1 µg/mL (≈ 3.01 µM). For the same compound, the MIC in [7] (setting [14]) stood at 4 µg/mL (≈ 12 µM); in test [8] (5038STRAIN) it was 2 µg/mL (≈ 6.02 µM); in test [9], 2 µg/mL (≈ 6.02 µM).

Turning to `CCCCC1CCC(C(O)=C2C(=O)N(C(=O)Nc3ccccc3)c3ccccc32)CC1` (stereo not drawn) [A016, N-(phenylaminocarbonyl)-3-(4-butylcyclohexylcarbonyl)-2-oxyindole], the MIC was found to be 0.25 µg/mL (≈ 0.597 µM) in test [1]; 4 µg/mL (≈ 9.56 µM) in [2]; 256 µg/mL (≈ 612 µM) in [3] (setting [10]); 256 µg/mL (≈ 612 µM) in [4] (setting [11]); 0.5 µg/mL (≈ 1.19 µM) in test [5] (setting [12]); 256 µg/mL (≈ 612 µM) in test [6] (setting [13]). Moreover, the MIC was determined as 128 µg/mL (≈ 306 µM) in test [7] (setting [14]), 1 µg/mL (≈ 2.39 µM) in test [8] (setting [15]) and 4 µg/mL (≈ 9.56 µM) in test [9] (setting [16]).

For `CCCCCCCCOCC(O)=C1C(=O)N(C(=O)Nc2ccccc2)c2ccccc21` [A058, N-(phenylaminocarbonyl)-3-octyloxyacetyl-2-oxyindole], the MIC in test [1] was less than 0.125 µg/mL; in [2], less than 0.125 µg/mL; in test [3] (setting [10]), 128 µg/mL (≈ 303 µM); in [4] (setting [11]), 128 µg/mL (≈ 303 µM); in [5] (setting [12]) it was 0.25 µg/mL (≈ 0.592 µM); in test [6] (setting [13]), 128 µg/mL (≈ 303 µM). The MIC in [7] (setting [14]) came to 64 µg/mL (≈ 151 µM); in test [8] (setting [15]) it was 0.25 µg/mL (≈ 0.592 µM); in test [9] (setting [16]), 0.5 µg/mL (≈ 1.18 µM).
